Like-named read-outs stand apart in the source and are kept apart here.
Key:
[1] = cited from earlier work
[2] = Plasma pharmacokinetics on cycle 1, day 15 (LC/MS, noncompartmental analysis); format: in vivo, human; details: for AUC(0-t): read-out: AUC0-24; for clearance: read-out: CLss (converted); for concentration at 24 h: read-out: Ctau or C24
Method: Pharmacokinetic (PK) analysis was conducted on cycle 1, day 15 for both everolimus and neratinib with blood samples collected at pre-dose, 1, 3, 4, 6, 8, and 24 hours post-dose. Following good clinical and laboratory practices, blood was collected into K2-EDTA vacutainers, gently inverted and mixed, then centrifuged at 3000 rpm (1500 g) for 10 min at 4°C. The resultant plasma was placed into cryovials and frozen at −70°C until analysis.

[3] = cited from earlier work; remark: listed apart in the source
[4] = monotherapy 240mg, N=3, ref Wong et.al.
[5] = monotherapy 240mg, N=3, ref Wong et.al., listed as neratinib
[6] = Dose Level 2: neratinib 200mg/day + everolimus 5mg/day, n=3, Cycle 1, Day 15, mean (range)
[7] = Dose Level 4: neratinib 240mg/day + everolimus 7.5mg/day, n=5, Cycle 1, Day 15, mean (range)
[8] = human, plasma, oral, Dose Level 2: neratinib 200mg/day + everolimus 5mg/day, n=3, Cycle 1, Day 15, mean (range)
[9] = human, plasma, oral, Dose Level 2: neratinib 200mg/day + everolimus 5mg/day, n=3, Cycle 1, Day 15, mean (range), read-out: Tmax
[10] = human, plasma, oral, Dose Level 4: neratinib 240mg/day + everolimus 7.5mg/day, n=5, Cycle 1, Day 15, mean (range)
[11] = monotherapy 5mg, N=4, ref O’Donnell et.al.
[12] = monotherapy 10mg, N=33, ref O’Donnell et.al.
[13] = monotherapy 10mg, N=33, ref O’Donnell et.al., listed as everolimus

In the case of `CCOc1cc2ncc(C#N)c(Nc3ccc(OCc4ccccn4)c(Cl)c3)c2cc1NC(=O)/C=C/CN(C)C` [Neratinib, neratinib], the “TRAE all grades: Anorexia” value [1, 4] is listed as 2 (67), the “TRAE all grades: Diarrhea” value [1, 4] is listed as 3 (100) and the “TRAE all grades: Fatigue” value [1, 4] is listed as 2 (67). For the same compound, the “TRAE all grades: Nausea” value [1, 4] was 2 (67), the “TRAE all grades: Rash” value [1, 4] was 1 (33) and the “TRAE all grades: Vomiting” value [1, 4] was 1 (33). For the same compound, the “TRAE all grades: Anorexia” value [1, 5] was 67, the “TRAE all grades: Diarrhea” value [1, 5] was 100 and the “TRAE all grades: Fatigue” value [1, 5] was 67. For the same compound, the “TRAE all grades: Nausea” value [1, 5] was 67, the MTD ([1]; monotherapy) was 320 mg and the “AR (accumulation ratio)” value [2, 6] was 1.41(1.2-1.9). For the same compound, the “AUC0-∞” value [2, 6] was 910 (195-2125) ng*h/mL, the “Ctau or C24” value [2, 6] was 13.6 (2.6-31.8) ng/mL and the “AR (accumulation ratio)” value [2, 7] was 2.29 (1.4-3.8). The “Ctau or C24” value [2, 7] was 44 (14.5-125) ng/mL, the Cmax [2, 8] was 35.8 ng/mL and the half-life [2, 8] was 13.1 h. For the same compound, the AUC(0-t) [2, 8] was 400 ng·h/mL, the clearance [2, 8] was 9970 mL/min and the concentration at 24 h [2, 8] was 13.6 ng/mL. The Tmax [2, 9] was 4.8 h, the AUC(0-inf) [2, 10] was 3930 ng·h/mL and the Cmax [2, 10] was 83.4 ng/mL. It also gave a half-life [2, 10] of 28.6 h, an AUC(0-t) [2, 10] of 1170 ng·h/mL and a clearance [2, 10] of 4820 mL/min. The concentration at 24 h [2, 10] was 44 ng/mL and the Tmax ([2]; human, plasma, oral, Dose Level 4: neratinib 240mg/day + everolimus 7.5mg/day, n=5, Cycle 1, Day 15, mean (range), read-out: Tmax) was 4.2 h.

For `CO[C@H]1C[C@@H]2CC[C@@H](C)[C@@](O)(O2)C(=O)C(=O)N2CCCC[C@H]2C(=O)O[C@H]([C@H](C)C[C@@H]2CC[C@@H](OCCO)[C@H](OC)C2)CC(=O)[C@H](C)/C=C(\C)[C@@H](O)[C@@H](OC)C(=O)[C@H](C)C[C@H](C)/C=C/C=C/C=C/1C` [Everolimus, everolimus], the “TRAE all grades: Anemia” value [3, 11] is given as 1 (25), the “TRAE all grades: Anorexia” value [3, 11] is given as 1 (25) and the “TRAE all grades: Constipation” value [3, 11] is given as 1 (25). For the same compound, the “TRAE all grades: Mucositis” value [3, 11] was 2 (50), the “TRAE all grades: Nausea” value [3, 11] was 1 (25) and the “TRAE all grades: Pruritus” value [3, 11] was 1 (25). The “TRAE all grades: Rash” value [3, 11] was 2 (50), the “Grade ≥ 3 treatment-related: Anorexia” value [3, 12] was 2 (6.1) and the “Grade ≥ 3 treatment-related: Dyspnea” value [3, 12] was 1 (3). For the same compound, the “Grade ≥ 3 treatment-related: Epistaxis” value [3, 12] was 1 (3), the “Grade ≥ 3 treatment-related: GI hemorrhage” value [3, 12] was 1 (3) and the “Grade ≥ 3 treatment-related: Hyperglycemia” value [3, 12] was 2 (6.1). The “Grade ≥ 3 treatment-related: Hypertriglyceridemia” value [3, 12] was 1 (3), the “Grade ≥ 3 treatment-related: Mucositis” value [3, 12] was 2 (6.1) and the “Grade ≥ 3 treatment-related: Nausea” value [3, 12] was 1 (3). For the same compound, the “Grade ≥ 3 treatment-related: Pneumonia” value [3, 12] was 1 (3), the “Grade ≥ 3 treatment-related: Rash” value [3, 12] was 1 (3) and the “Grade ≥ 3 treatment-related: Thrombocytopenia” value [3, 12] was 2 (6.1). For the same compound, the “TRAE all grades: Anorexia” value [3, 12] was 11 (33.3), the “TRAE all grades: Constipation” value [3, 12] was 7 (21.2) and the “TRAE all grades: Diarrhea” value [3, 12] was 7 (21.2). The “TRAE all grades: Fatigue” value [3, 12] was 12 (36.4), the “TRAE all grades: Headache” value [3, 12] was 7 (21.2) and the “TRAE all grades: Mucositis” value [3, 12] was 17 (51.5). For the same compound, the “TRAE all grades: Nausea” value [3, 12] was 14 (42.4), the “TRAE all grades: Rash” value [3, 12] was 20 (60.6) and the “TRAE all grades: Vomiting” value [3, 12] was 5 (15.2). The “TRAE all grades: Mucositis” value [3, 13] was 51.5, the “TRAE all grades: Nausea” value [3, 13] was 42.4 and the “TRAE all grades: Rash” value [3, 13] was 60.6. For the same compound, the Tmax ([3]; single agent) was 1 to 2 h, the “dose with acceptable tolerability suggested by PK analysis (MTD undetermined)” value ([3]; single agent) was 10 mg/day and the “AR (accumulation ratio)” value [2, 6] was 1.2 (1.1-1.3). For the same compound, the “Ctau or C24” value [2, 6] was 0.42 (0-1.1) ng/mL, the “AR (accumulation ratio)” value [2, 7] was 1.7 (1-2.6) and the “Ctau or C24” value [2, 7] was 2.8 (0-9.9) ng/mL. The Tmax [2, 7] was 4.8 h, the AUC(0-inf) [2, 8] was 53.8 ng·h/mL and the Cmax [2, 8] was 3.58 ng/mL. The half-life [2, 8] was 8.2 h, the AUC(0-t) [2, 8] was 24.3 ng·h/mL and the clearance [2, 8] was 3370 mL/min. The concentration at 24 h [2, 8] was 0.42 ng/mL, the Tmax [2, 9] was 4.33 h and the AUC(0-inf) [2, 10] was 253 ng·h/mL. It also gave a Cmax [2, 10] of 8.5 ng/mL, a half-life [2, 10] of 16.8 h and an AUC(0-t) [2, 10] of 116 ng·h/mL. The clearance [2, 10] was 2300 mL/min, the concentration at 24 h [2, 10] was 2.8 ng/mL and the Tmax ([2]; human, plasma, oral, both groups (DL 2 and DL 4), with neratinib, read-out: mean Tmax) was > 4 h.
